# Columns and labels:
# [1] = biological target: forkhead transcription factor, Foxo3a (Homo sapiens, UniProt O43524); conditions: published by Kawahara et al., 2015; cited from earlier work
# [2] = system: Schizosaccharomyces pombe; experiment: Filter disc assay on a lawn of S. pombe; type: cell-based; conditions: for bioactivity against S. pombe (haloes/zones of inhibition), relative: zinc complexed versus zinc-free form, tested in parallel
# Protocol: The silica powder with the S149 compound adsorbed onto it was divided into two equal portions of ˜7.5 g and each portion was used in normal phase “flash” chromatography using a Biotage™ Isolera™ machine and a Biotage™ KP-Sil 50 g column. A chloroform-methanol gradient was used to elute the bound material from the silica in which the percentage of methanol went from 0%-100%. No formic acid was added to the solvents as this degrades the bioactive compound. The eluate from the column was fractionated and the presence of the bioactive compound (S149) determined using the “Filter disc assay” method as described in the “Materials and Methods” of Lewis et al., 2017. The active fractions eluted from the two normal phase chromatography columns were pooled, and after removal of the solvent using a GeneVac™ Series U system equipped with a GeneVac™ VC3000TA condenser unit, the dried material was resuspended in 5 ml of methanol which was loaded onto a size exclusion column. The column was run at a flow rate of 1 ml/min with 1,200 ml of methanol and the eluate fractionated. The bioactive fractions, as determined using the “Filter disc assay” method as described in the “Materials and Methods” of Lewis et al., 2017, were pooled to give ˜15 ml of material which was diluted with 60 ml of water to give 75 ml of a 20% methanol solution. This was used in reverse phase chromatography using a Biotage™ Isolera™ chromatography machine in which the bioactive material was loaded by injection onto a C18 SNAP Ultra 12 g Biotage™ column and eluted using an acetonitrile-water gradient where the percentage of acetonitrile was increased from 20%-100%.
# An example of the u.v. absorbance pattern (λ=254 nm) is shown in FIG. 1 and indicates the presence of four peaks labelled 0-3. An integrated fraction collector was used to peak-pick material and collect column eluate corresponding to the peaks which were then bioassayed using the “Filter disc assay” method as described in the “Materials and Methods” of Lewis el al., 2017.
# Chain of forkhead transcription factor, Foxo3a (O43524 whole entry): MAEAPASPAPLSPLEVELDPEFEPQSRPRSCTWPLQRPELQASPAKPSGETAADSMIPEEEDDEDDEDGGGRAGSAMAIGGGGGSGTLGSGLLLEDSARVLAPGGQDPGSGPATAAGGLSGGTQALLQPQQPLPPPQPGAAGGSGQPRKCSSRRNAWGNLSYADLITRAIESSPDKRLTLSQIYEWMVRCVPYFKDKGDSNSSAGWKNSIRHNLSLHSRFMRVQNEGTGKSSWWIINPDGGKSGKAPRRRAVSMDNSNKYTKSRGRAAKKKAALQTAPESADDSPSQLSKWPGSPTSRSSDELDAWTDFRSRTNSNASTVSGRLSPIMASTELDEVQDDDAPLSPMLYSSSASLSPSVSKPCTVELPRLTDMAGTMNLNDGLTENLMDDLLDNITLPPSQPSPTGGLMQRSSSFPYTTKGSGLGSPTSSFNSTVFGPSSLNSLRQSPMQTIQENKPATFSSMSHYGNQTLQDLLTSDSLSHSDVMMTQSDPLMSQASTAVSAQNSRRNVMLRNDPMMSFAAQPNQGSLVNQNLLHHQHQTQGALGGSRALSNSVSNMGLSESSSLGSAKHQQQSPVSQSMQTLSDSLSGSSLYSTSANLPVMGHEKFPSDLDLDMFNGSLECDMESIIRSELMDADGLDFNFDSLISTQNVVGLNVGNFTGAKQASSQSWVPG
SMILES,inhibition of the transcriptional activity of Foxo3a [1],time for haloes in the S. pombe lawn around impregnated discs to develop ([2]; filter discs impregnated with HPLC peak material),"bioactivity against S. pombe (haloes/zones of inhibition), relative [2]","bioactivity against S. pombe (haloes/zones of inhibition), relative ([2]; listed as JBIR 141)","bioactivity against S. pombe (haloes/zones of inhibition), relative ([2]; listed as Peak 0)"
CC(=O)O[C@@H]([C@H](CCCN(O)N=O)NC(=O)[C@H]1N=C([C@H](C)N(C)C)O[C@@H]1C)C(C)(C)C(=O)O[C@H](C(=O)C1=C(O)[C@H](C)N(C)C1=O)C(C)C [JBIR-141],possess the ability to inhibit the transcriptional activity,~48 h,not as bioactive as the zinc complexed form,not as bioactive as the zinc complexed form,lower than the bioactivity of the material from the other peaks
CC(=O)O[C@@H]([C@H](C[C@@H](O)CN(O)N=O)NC(=O)[C@H]1N=C([C@H](C)N(C)C)O[C@@H]1C)C(C)(C)C(=O)O[C@H](C(=O)C1=C(O)[C@H](C)N(C)C1=O)C(C)C [JBIR-142],possess the ability to inhibit the transcriptional activity,,,,
